Test results published in publication PMC4823954, “From fighting depression to conquering tumors: a novel tricyclic thiazepine compound as a tubulin polymerization inhibitor” (Cell Death & Disease, 2016).
Values joined by “and” are separate entries in the source; they are usually repeats but may differ in a detail not shown here. Equal entries are not always repeated.

Experiments:
[1] = parallel artificial membrane permeability assay (PAMPA); type: in vitro ADME
Description: As in vivo investigations are generally time consuming and expensive, it is advantageous to eliminate those compounds that are not suitable for animal experiments. One of the necessary steps is to screen the initial hits using assays testing their possible behaviors in vivo. To evaluate the drug-like properties of TBPT, a panel of in vitro assays was preformed (Table 1). The parallel artificial membrane permeability assay (PAMPA) was used to evaluate the cell permeability of the compounds. Compounds with a Pe >[…] are classified as highly permeable. […] The Caco-2 assay was used to predict the oral absorption values of the compounds in vivo. Compounds with a Caco-2 efflux ratio >2 may be subject to active efflux and should not be developed further. […] The half-life (T1/2) in human liver microsomes is used to predict the metabolism properties of compounds in vivo. […] A very long T1/2 (>24 h) increases the risk of cumulative toxicity and is not desirable. […] T1/2 in plasma indicates the stability of the drug in human blood; the high T1/2 values of these compounds indicated better stability in vivo. Plasma protein binding influences the distribution of drugs into body tissues, and compounds with high plasma protein binding (>99%) are limited in terms of the amount of free compound that are available to act on the targeted tissue. […]

H460 xenograft = test: NSCLC xenograft tumor growth inhibition; type: in vivo; conditions: H460 xenografted mice; TBPT 60 mg/kg i.v., five injections every other day
Procedure: (§1) (a) The tumor volume was measured every other day. […] (b) Blood biochemical and hematological analyses.

H460TaxR xenograft = test: NSCLC xenograft tumor growth inhibition; type: in vivo; conditions: H460TaxR xenografted mice; TBPT 60 mg/kg i.v., five injections every other day
Procedure: as §1

H460 [2] = test: Apoptosis flow cytometry (PI/Annexin V-FITC); type: cell-based, human; conditions: NSCLC cells (H460), 2 μM, 48 h
caspases 8, 9 and 3/7 [3] = test: Caspases activity assay in H460TaxR cells; type: cell-based, human; conditions: 2 μM, 6, 12 and 24 h
Procedure: (§2) The activities of caspases 8, 9, and 3/7 in H460TaxR and H460 cells were examined via a fluorescence-based assay using Caspase-Glo 8, Caspase-Glo 9 Assay kits and Apo-ONE Homogeneous Caspase-3/7 Assay Kit (Promega, Madison, WI, USA). Cells (1 × 10^6 cells in 10 ml medium) were seeded in 10-cm dishes. After 24 h, the cells were treated with TBPT (2 μM) or DMSO for 6, 12 and 24 h. Then, the cells were washed in PBS and collected. Cell lysates were prepared conventionally in RIPA lysis buffer. Protein concentrations were determined using the BCA protein assay. Equal amounts (10 μg) of total protein of samples were added to 96-well culture plates containing 100 μl caspases 8, 9 and 3/7 activity working solution. After the samples were incubated for 1 h at RT, the fluorescence of each well was determined at 499 nm with an emission wavelength of 521 nm using a multimode plate reader (Victor X2, Perkin Elmer, Boston, MA, USA). The fluorescence intensities are proportional to the activities of caspases 8, 9 and 3/7.

caspases 8, 9 and 3/7 [4] = test: Caspases activity assay in H460 cells; type: cell-based, human; conditions: H460, 2 μM, 6, 12 and 24 h
Procedure: as §2

H460TaxR = test: Mitochondrial membrane potential (JC-1); type: cell-based, human; conditions: 2 μM, 12 h
Procedure: (§3) The mitochondrial membrane potential was determined using JC-1 dye (Beyotime, Beijing, China). NSCLC cells (4 × 10^4 cells in 0.5 ml) were seeded in 24-well culture plates. […] Carbonyl cyanide m-chlorophenylhydrazone (CCCP; 10 μM), a mitochondrial membrane disrupter, was used to treat cells for 20 min as a positive control. Then, the cells were incubated with 200 μl JC-1 working solution at 37 °C for 20 min. After the cells were washed in RPMI-1640 medium, they were observed and imaged using a fluorescence microscope (Olympus IX71).

H460 [5] = test: Mitochondrial membrane potential (JC-1); type: cell-based, human; conditions: H460, 2 μM, 12 h
Procedure: as §3

[6] = target: T1, ABL1(E255K)-phosphorylated (Homo sapiens, UniProt P00519, E255K); test: KINOMEscan; type: binding; conditions: read-out: % Ctrl
T1 construct: purchased DiscoveRx KINOMEscan

[7] = target: T2, ABL1(F317I)-phosphorylated (Homo sapiens, UniProt P00519, F317I); test: KINOMEscan; type: binding; conditions: read-out: % Ctrl
T2 construct: purchased DiscoveRx KINOMEscan

[8] = target: T3, ABL1(F317L)-phosphorylated (Homo sapiens, UniProt P00519, F317L); test: KINOMEscan; type: binding; conditions: read-out: % Ctrl
T3 construct: purchased DiscoveRx KINOMEscan

[9] = target: T4, EGFR(L747-E749del, A750P) (Homo sapiens, UniProt P00533, A750P/DEL747-749); test: KINOMEscan; type: binding; conditions: read-out: % Ctrl
T4 construct: purchased DiscoveRx KINOMEscan

EGFR(L861Q) = target: T5, EGFR(L861Q) (Homo sapiens, UniProt P00533, L861Q); test: KINOMEscan; type: binding; conditions: read-out: % Ctrl
T5 construct: purchased DiscoveRx KINOMEscan

FLT3(D835Y) = target: T6, FLT3(D835Y) (Homo sapiens, UniProt P36888, D835Y); test: KINOMEscan; type: binding; conditions: read-out: % Ctrl
T6 construct: purchased DiscoveRx KINOMEscan

FLT3(K663Q) = target: T7, FLT3(K663Q) (Homo sapiens, UniProt P36888, K663Q); test: KINOMEscan; type: binding; conditions: read-out: % Ctrl
T7 construct: purchased DiscoveRx KINOMEscan

KIT(L576P) = target: T8, KIT(L576P) (Homo sapiens, UniProt P10721, L576P); test: KINOMEscan; type: binding; conditions: read-out: % Ctrl
T8 construct: purchased DiscoveRx KINOMEscan

LRRK2(G2019S) = target: T9, LRRK2(G2019S) (Homo sapiens, UniProt Q5S007, G2019S); test: KINOMEscan; type: binding; conditions: read-out: % Ctrl
T9 construct: purchased DiscoveRx KINOMEscan

PIK3CA(Q546K) = target: T10, PIK3CA(Q546K) (Homo sapiens, UniProt P42336, Q546K); test: KINOMEscan; type: binding; conditions: read-out: % Ctrl
T10 construct: purchased DiscoveRx KINOMEscan

PKNB(M.tuberculosis) = target: T11, PKNB(M.tuberculosis) (Mycobacterium tuberculosis, UniProt P9WI81); test: KINOMEscan; type: binding; conditions: read-out: % Ctrl
T11 construct: purchased DiscoveRx KINOMEscan

[10] = mouse, in vivo
Procedure: Five injections of vehicle and TBPT (30 or 60 mg/kg) were administered intravenously at days 1, 3, 5, 7 and 9 (arrows). Four injections of PTX (10 mg/kg) were administered intravenously at days 1, 3, 5 and 7. (a) The tumor volume was measured every other day. When the tumor volume in the solvent-treated group exceeded 1500 mm^3, the experiment was terminated. (b) Blood biochemical and hematological analyses. (c) The body weights of the mice were monitored every other day during the experiments. *P<0.05, Student's t-test with day 0, N=5
Figure 3 Histopathological examination of the major organs from TBPT or PTX-treated mouse tumor at the end of the experiments. The cross-sections of organs were stained with hematoxylin–eosin. […] The scale bars represent 50 μm and are uniform in each column
H460 and H460TaxR cells (5 × 10^6 cells in 100 μl PBS) were injected subcutaneously into the dorsal flank of each mouse. When the tumors reached volumes of 100 mm^3, the mice were divided randomly into four groups. The mice were treated every other day five times with intravenous injections of (1) vehicle (the solvent of TBPT: 60% PBS, 8% Cremophor EL, 8% EtOH, 12% poly propylene glycol and 12% PEG-400), (2) TBPT (30 mg/kg) or (3) TBPT (60 mg/kg). Another group was treated with PTX (10 mg/kg) every other day four times as the positive control. The tumor dimensions and body weights were measured every other day. The tumor volume was calculated according to a standard formula: volume=width^2 × length/2. The experiment was terminated and the mice were killed when the tumor volumes in the solvent-treated group exceeded 1500 mm^3. The mouse organs and blood were collected and used for hematoxylin–eosin staining and serum chemistry assay. TGI rates were assessed using the following formula: TGI=1− (Tt−T0)/(Ct−C0) × 100%. Tt and T0 indicate the tumor volumes of the treated group at days t and 0. Ct and C0 indicate the tumor volumes of the control group at days t and 0, respectively.

T5 sequence (P00533 25-1210 L861Q): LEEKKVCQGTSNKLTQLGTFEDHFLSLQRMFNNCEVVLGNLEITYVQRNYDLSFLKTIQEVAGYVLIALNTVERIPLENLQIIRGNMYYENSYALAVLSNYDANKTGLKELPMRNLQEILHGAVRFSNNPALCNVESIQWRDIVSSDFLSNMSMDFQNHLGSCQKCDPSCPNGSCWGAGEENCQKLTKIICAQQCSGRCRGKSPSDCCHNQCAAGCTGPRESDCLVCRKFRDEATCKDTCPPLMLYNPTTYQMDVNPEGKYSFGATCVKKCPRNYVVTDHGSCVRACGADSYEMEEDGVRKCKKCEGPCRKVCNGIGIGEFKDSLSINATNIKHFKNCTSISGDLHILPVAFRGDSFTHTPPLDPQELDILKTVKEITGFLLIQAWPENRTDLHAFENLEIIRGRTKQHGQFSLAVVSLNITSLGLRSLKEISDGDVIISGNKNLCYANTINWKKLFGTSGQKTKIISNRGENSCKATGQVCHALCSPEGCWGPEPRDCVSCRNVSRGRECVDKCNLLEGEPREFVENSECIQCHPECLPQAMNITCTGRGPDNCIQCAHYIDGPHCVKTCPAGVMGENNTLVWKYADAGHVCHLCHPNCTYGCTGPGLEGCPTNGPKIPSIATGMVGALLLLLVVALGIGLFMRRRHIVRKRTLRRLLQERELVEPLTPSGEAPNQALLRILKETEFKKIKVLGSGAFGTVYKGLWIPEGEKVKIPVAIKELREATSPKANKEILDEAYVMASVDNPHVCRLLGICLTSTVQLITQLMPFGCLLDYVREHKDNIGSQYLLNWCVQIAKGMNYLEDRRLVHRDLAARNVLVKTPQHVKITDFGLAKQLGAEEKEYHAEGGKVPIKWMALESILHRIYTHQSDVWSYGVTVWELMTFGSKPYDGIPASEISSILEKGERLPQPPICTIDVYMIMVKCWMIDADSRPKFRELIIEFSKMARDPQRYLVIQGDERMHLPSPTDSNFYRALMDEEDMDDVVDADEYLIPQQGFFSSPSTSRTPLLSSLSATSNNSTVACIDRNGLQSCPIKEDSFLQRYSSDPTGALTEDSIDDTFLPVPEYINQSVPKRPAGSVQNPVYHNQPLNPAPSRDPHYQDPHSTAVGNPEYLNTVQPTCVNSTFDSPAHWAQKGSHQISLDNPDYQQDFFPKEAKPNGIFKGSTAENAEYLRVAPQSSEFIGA
T2 sequence (P00519 whole entry F317I): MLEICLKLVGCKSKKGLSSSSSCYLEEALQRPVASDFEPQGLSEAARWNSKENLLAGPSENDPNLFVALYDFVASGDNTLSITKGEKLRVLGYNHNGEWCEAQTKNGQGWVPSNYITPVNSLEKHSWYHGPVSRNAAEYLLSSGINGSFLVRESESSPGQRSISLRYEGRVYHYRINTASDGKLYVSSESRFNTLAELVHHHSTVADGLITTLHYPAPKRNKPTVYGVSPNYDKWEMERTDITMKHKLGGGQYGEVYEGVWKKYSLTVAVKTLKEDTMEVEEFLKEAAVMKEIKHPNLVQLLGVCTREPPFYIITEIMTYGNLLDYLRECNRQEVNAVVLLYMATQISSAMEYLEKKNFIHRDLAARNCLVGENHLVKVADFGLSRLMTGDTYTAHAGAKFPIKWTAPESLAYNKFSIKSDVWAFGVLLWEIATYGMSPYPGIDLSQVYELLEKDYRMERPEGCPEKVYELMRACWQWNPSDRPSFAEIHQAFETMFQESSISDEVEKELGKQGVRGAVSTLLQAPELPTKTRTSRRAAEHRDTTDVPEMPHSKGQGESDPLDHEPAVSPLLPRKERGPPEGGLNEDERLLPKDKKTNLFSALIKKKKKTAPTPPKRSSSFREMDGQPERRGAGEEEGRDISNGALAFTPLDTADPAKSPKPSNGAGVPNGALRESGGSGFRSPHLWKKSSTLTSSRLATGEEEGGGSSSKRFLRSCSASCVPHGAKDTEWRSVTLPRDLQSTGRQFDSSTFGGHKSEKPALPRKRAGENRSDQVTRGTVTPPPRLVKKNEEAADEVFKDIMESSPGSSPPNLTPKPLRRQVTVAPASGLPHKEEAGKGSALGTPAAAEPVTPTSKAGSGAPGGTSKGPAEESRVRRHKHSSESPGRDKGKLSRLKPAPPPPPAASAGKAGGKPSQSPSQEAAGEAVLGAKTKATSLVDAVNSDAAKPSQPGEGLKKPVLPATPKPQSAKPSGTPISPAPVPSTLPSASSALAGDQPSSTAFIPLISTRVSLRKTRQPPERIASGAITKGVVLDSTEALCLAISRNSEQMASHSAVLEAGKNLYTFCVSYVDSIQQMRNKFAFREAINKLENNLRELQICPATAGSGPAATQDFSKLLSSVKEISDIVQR
T11 sequence (P9WI81 whole entry): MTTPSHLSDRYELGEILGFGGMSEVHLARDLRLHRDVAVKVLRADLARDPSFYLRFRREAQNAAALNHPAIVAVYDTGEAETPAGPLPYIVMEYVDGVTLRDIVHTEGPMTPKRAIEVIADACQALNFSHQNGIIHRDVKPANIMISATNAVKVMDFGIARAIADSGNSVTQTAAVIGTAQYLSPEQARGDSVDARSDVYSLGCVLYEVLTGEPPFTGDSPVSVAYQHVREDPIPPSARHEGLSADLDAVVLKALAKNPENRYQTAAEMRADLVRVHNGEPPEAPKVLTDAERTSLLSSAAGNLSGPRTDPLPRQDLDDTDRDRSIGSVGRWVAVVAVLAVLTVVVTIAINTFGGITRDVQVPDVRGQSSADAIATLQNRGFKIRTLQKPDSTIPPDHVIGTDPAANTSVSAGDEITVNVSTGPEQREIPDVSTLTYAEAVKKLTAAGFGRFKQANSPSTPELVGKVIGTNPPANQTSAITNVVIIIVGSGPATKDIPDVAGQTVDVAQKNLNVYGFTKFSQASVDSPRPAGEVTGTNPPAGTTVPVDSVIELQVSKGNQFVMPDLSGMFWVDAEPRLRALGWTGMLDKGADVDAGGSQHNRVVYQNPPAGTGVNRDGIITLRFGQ
T4 sequence (P00533 with tags, fused parts or gaps DEL747-749/A750P limits assumed): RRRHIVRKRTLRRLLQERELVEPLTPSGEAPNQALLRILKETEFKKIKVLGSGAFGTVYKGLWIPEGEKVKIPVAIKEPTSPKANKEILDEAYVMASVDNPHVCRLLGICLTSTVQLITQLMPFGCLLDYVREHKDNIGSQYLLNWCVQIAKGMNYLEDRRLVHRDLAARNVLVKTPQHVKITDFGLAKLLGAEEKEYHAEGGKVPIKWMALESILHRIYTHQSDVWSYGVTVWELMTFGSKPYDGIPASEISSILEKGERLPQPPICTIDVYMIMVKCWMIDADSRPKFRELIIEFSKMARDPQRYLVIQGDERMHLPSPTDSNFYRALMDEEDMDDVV
T10 sequence (P42336 whole entry Q546K): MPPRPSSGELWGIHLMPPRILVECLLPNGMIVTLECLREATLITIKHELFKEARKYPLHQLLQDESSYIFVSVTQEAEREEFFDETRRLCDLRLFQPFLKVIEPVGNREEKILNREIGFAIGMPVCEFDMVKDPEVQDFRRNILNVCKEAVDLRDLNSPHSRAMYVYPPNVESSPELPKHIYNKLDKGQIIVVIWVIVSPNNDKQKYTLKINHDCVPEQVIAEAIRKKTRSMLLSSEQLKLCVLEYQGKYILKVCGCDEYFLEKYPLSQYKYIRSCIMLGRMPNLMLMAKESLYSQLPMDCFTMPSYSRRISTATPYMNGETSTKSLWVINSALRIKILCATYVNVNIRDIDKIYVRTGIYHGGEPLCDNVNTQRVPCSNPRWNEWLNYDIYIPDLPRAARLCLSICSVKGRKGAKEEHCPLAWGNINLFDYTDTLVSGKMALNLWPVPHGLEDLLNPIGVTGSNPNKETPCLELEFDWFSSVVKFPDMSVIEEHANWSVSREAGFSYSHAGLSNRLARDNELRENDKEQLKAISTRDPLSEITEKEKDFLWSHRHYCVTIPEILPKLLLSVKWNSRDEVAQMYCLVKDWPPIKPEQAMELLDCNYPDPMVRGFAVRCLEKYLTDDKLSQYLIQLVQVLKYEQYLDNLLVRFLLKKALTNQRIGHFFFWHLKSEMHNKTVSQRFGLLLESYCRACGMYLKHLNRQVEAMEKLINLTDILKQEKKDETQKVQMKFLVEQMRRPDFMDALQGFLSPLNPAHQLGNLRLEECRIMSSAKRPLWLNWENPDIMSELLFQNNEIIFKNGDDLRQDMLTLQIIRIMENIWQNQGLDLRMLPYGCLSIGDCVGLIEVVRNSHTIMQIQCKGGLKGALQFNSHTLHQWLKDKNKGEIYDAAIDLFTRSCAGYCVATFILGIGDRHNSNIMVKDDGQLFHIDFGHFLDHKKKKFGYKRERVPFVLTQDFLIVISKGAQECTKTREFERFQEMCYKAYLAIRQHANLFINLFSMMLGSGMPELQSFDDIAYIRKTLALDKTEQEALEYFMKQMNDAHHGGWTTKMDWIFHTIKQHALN
T3 sequence (P00519 whole entry F317L): as the sequence (P00519 whole entry F317I) above, with I317L counted along it
T1 sequence (P00519 whole entry E255K): as the sequence (P00519 whole entry F317I) above, with E255K, I317F counted along it

Structure (SMILES): Cc1ccc(C2=Nc3cccnc3S(=O)(=O)c3ccccc32)cc1 [TBPT, 6-(p-tolyl)benzo[f] pyrido[2,3-b][1,4] thiazepine 11,11-dioxide]
- PAMPA Pe [1]: 1081.1±30.2 10^−6cm/s
- tumor growth inhibition, TGI (H460 xenograft): 62.9% and > 60%
- tumor growth inhibition, TGI (H460TaxR xenograft): 66.7% and > 60%
- cells in an apoptotic/necrotic state (H460 [2]): approximately 50%
- activities of caspases 8, 9 and 3/7 (caspases 8, 9 and 3/7 [3]): activated caspases 8, 9 and 3/7 in a time-dependent manner
- activities of caspases 8, 9 and 3/7 (caspases 8, 9 and 3/7 [4]): activated caspases 8, 9 and 3/7 in a time-dependent manner
- mitochondrial membrane potential (H460TaxR): decreased significantly
- mitochondrial membrane potential (H460 [5]): decreased significantly
- remaining binding at 5 µM ([6]; 5 μM): 60%
- remaining binding at 10 µM ([6]; 10 μM): 89%
- remaining binding at 5 µM ([7]; 5 μM): 78%
- remaining binding at 10 µM ([7]; 10 μM): 81%
- remaining binding at 5 µM ([8]; 5 μM): 72%
- remaining binding at 10 µM ([8]; 10 μM): 98%
- remaining binding at 5 µM ([9]; 5 μM): 91%
- remaining binding at 10 µM ([9]; 10 μM): 91%
- remaining binding at 5 µM (EGFR(L861Q); 5 μM): 100%
- remaining binding at 10 µM (EGFR(L861Q); 10 μM): 100%
- remaining binding at 5 µM (FLT3(D835Y); 5 μM): 92%
- remaining binding at 10 µM (FLT3(D835Y); 10 μM): 100%
- remaining binding at 5 µM (FLT3(K663Q); 5 μM): 84%
- remaining binding at 10 µM (FLT3(K663Q); 10 μM): 94%
- remaining binding at 5 µM (KIT(L576P); 5 μM): 78%
- remaining binding at 10 µM (KIT(L576P); 10 μM): 100%
- remaining binding at 5 µM (LRRK2(G2019S); 5 μM): 86%
- remaining binding at 10 µM (LRRK2(G2019S); 10 μM): 99%
- remaining binding at 5 µM (PIK3CA(Q546K); 5 μM): 100%
- remaining binding at 10 µM (PIK3CA(Q546K); 10 μM): 94%
- remaining binding at 5 µM (PKNB(M.tuberculosis); 5 μM): 100%
- remaining binding at 10 µM (PKNB(M.tuberculosis); 10 μM): 85%
- histopathological examination of the major organs [10]: No pathological changes were observed
